Data published in the supplement of paper PMC10307832.

Assays:
Assay in all cases: relative viability (nuclei count vs DMSO), 5 days (fraction); higher = more cells survive
Shikonin = compound: CC(C)=CC[C@@H](O)C1=CC(=O)c2c(O)ccc(O)c2C1=O [Shikonin]
Method in brief: (§1)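 After an overnight hold at 37 °C, lung cancer cell lines in 1536-well plates were pinned with five library-drug doses (not always all listed), each √10 from the next, on vehicle-anchored plates. The cells stayed 5 days without fresh medium, then a one-step fix, permeabilisation and Hoechst stain preceded 4× imaging and MetaXpress nuclear counts. A plate passed only with control CV under 25% and at least one doubling. Viability is the median, over plates, of treated-well nuclei relative to vehicle-well nuclei.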

[1] = compound: CC(C)N(CCCNC(=O)Nc1ccc(C(C)(C)C)cc1)C[C@H]1O[C@@H](n2ccc3c(N)ncnc32)[C@H](O)[C@@H]1O
Method in brief: as §1

Shikonin + Lapatinib = compound: CC(C)=CC[C@@H](O)C1=CC(=O)c2c(O)ccc(O)c2C1=O [Shikonin] + CS(=O)(=O)CCNCc1ccc(-c2ccc3ncnc(Nc4ccc(OCc5cccc(F)c5)c(Cl)c4)c3c2)o1 [Lapatinib] (partner 2 µM)
Method in brief: (§2)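 Lung cancer cell lines were seeded in 1536-well plates and dosed by pin tool the next day, with either a single drug or a fixed anchor-drug dose combined with five library-drug doses (not always all listed) spaced in √10 steps. Five days later, one step fixed the cells and stained their nuclei (final 0.05% Triton X-100, 1% formaldehyde, 1 ug/ml Hoechst), and nuclei were counted on 4× images. Relative viability is the nuclei count in treated wells divided by the count in vehicle wells, and each value is the median of duplicate plates.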

Shikonin + Foretinib = compound: CC(C)=CC[C@@H](O)C1=CC(=O)c2c(O)ccc(O)c2C1=O [Shikonin] + COc1cc2c(Oc3ccc(NC(=O)C4(C(=O)Nc5ccc(F)cc5)CC4)cc3F)ccnc2cc1OCCCN1CCOCC1 [Foretinib] (partner 0.25 µM)
Method in brief: as §2

UMC-11
relative viability (Shikonin; 0.01 µM): 0.943
relative viability (Shikonin; 0.1 µM): 0.993
relative viability (Shikonin; 0.3162 µM): 1.07
relative viability (Shikonin; 1 µM): 1.08
relative viability ([1]; 0.08 µM): 0.953
relative viability ([1]; 0.253 µM): 0.875
relative viability ([1]; 0.8 µM): 0.82
relative viability ([1]; 2.53 µM): 0.999
relative viability ([1]; 8 µM): 1.01
relative viability (Shikonin + Lapatinib; first compound 0.01 µM): 1
relative viability (Shikonin + Lapatinib; first compound 0.1 µM): 1.08
relative viability (Shikonin + Lapatinib; first compound 0.3162 µM): 1
relative viability (Shikonin + Lapatinib; first compound 1 µM): 1.12
relative viability (Shikonin + Foretinib; first compound 0.01 µM): 1.02
relative viability (Shikonin + Foretinib; first compound 0.1 µM): 1.13
relative viability (Shikonin + Foretinib; first compound 0.3162 µM): 1.13
relative viability (Shikonin + Foretinib; first compound 1 µM): 1.07
